Results published in ChEMBL document CHEMBL2390830 (Eur J Med Chem, 2013).
Activity calls are given as the source filed them. The calls are words filed in the database; no cut-off is given here.

Key:
[1] = target: T1, 5-hydroxytryptamine receptor 7 (Homo sapiens, UniProt P34969); assay: Inhibition of human 5-HT7 receptor
[2] = tested on: Mus musculus; assay: Toxicity in CD1 mouse assessed as effect on neuromotor tonus up to 80 mg/kg, po measured for 24 hrs by Irwin test; type: organism-based; parameters: dose 80 mg/kg, route oral; conditions: in vivo
[3] = Oral bioavailability in CD1 mouse at 10 mg/kg; type: ADME, organism-based; conditions: in vivo
[4] = target: T2, 5-hydroxytryptamine receptor 1A (Homo sapiens) (UniProt P08908); assay: Agonist activity at human 5-HT1A receptor transfected in CHO cells assessed as inhibition of forskolin-induced cAMP accumulation at 100 nM relative to control; type: functional, cell-based
T2 sequence (whole entry): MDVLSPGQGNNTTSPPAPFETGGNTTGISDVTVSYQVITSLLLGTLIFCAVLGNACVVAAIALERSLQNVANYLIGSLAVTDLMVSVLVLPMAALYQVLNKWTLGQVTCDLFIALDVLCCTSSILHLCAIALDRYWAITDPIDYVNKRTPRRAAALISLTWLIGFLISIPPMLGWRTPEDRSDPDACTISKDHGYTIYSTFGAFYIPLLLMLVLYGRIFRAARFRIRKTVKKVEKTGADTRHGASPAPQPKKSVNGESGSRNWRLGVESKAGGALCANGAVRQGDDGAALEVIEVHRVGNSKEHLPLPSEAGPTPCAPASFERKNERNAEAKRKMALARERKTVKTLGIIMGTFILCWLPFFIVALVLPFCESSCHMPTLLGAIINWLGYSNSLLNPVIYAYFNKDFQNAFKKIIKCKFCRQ

[5] = target: T3, 5-hydroxytryptamine receptor 2B (Homo sapiens, UniProt P41595); assay: Inhibition of human 5-HT2B receptor at 10 nM relative to control
T3 sequence (P41595 whole entry): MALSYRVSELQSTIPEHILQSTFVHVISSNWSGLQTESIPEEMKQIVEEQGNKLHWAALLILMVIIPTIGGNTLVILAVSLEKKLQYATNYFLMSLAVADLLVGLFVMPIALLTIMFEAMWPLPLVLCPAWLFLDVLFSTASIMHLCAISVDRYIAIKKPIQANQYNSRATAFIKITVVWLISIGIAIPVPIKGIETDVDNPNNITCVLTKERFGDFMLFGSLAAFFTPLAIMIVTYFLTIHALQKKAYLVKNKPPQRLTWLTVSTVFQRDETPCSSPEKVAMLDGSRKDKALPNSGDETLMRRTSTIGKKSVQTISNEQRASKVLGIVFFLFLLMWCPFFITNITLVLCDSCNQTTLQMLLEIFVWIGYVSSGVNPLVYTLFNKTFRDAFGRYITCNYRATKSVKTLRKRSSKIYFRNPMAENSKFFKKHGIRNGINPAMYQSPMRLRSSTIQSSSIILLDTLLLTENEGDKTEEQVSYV

[6] = target: T1, 5-hydroxytryptamine receptor 7; assay: Inhibition of human 5-HT7 receptor at 100 nM relative to control
[7] = target: T1, 5-hydroxytryptamine receptor 7; assay: Inhibition of human 5-HT7 receptor at 10 nM relative to control
[8] = tested on: Mus musculus; assay: Toxicity in CD1 mouse assessed as effect on central activity up to 80 mg/kg, po measured for 24 hrs by Irwin test; type: organism-based; parameters: dose 80 mg/kg, route oral; conditions: in vivo
[9] = Half life in CD1 mouse at 10 mg/kg, po; type: ADME, organism-based; parameters: dose 10 mg/kg, route oral; conditions: in vivo
[10] = target: T4, D(2) dopamine receptor (Homo sapiens, UniProt P14416); conditions: HEK293, 100 nM
T4 sequence (P14416 whole entry): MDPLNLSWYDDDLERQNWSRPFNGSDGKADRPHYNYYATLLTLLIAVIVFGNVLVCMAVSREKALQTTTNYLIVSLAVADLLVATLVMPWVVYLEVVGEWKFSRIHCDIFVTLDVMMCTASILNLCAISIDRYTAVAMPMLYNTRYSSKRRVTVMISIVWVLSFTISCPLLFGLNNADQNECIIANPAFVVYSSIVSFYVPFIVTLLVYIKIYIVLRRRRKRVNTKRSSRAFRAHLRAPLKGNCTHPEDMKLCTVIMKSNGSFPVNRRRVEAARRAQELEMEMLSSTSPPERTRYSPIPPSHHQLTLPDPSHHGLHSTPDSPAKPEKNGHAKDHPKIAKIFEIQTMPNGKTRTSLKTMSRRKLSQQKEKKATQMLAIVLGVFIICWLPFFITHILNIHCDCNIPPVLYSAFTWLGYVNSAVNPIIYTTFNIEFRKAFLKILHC

[11] = Half life in CD1 mouse at 2 mg/kg, iv; type: ADME, organism-based; parameters: dose 2 mg/kg, route intravenous; conditions: in vivo
[12] = AUCinfinity in CD1 mouse at 2 mg/kg, iv; type: ADME, organism-based; parameters: time infinity, dose 2 mg/kg, route intravenous; conditions: plasma
[13] = target: T5, D(4) dopamine receptor (Homo sapiens) (UniProt P21917); assay: Inhibition of dopamine D4 receptor (unknown origin) at 10 nM relative to control
T5 sequence (whole entry): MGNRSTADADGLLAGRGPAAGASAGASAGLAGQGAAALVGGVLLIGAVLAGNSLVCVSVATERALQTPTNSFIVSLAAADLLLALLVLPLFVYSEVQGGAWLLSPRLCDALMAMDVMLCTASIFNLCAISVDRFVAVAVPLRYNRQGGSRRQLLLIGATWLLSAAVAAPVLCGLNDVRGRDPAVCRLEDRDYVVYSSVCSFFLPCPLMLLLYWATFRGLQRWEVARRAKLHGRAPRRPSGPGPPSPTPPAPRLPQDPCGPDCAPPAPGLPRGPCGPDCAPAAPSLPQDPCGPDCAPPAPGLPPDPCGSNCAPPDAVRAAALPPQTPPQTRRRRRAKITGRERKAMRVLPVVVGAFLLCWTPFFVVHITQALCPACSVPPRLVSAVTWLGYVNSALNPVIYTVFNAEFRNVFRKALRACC

[14] = target: T6, D(3) dopamine receptor (Homo sapiens, UniProt P35462); assay: Inhibition of human dopamine D3 receptor
T6 sequence (P35462 whole entry): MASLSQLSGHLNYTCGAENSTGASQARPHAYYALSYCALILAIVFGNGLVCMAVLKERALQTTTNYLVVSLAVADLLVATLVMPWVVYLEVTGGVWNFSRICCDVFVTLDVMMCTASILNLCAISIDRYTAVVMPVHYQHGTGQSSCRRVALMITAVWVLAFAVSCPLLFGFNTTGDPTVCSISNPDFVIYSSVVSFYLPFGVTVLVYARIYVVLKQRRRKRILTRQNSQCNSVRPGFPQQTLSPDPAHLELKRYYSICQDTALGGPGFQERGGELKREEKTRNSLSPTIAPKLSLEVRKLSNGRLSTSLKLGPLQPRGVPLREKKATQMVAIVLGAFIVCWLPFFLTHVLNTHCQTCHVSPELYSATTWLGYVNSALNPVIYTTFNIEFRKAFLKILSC

[15] = target: T7, D(4) dopamine receptor (Homo sapiens, UniProt P21917); assay: Inhibition of dopamine D4 receptor (unknown origin)
T7 sequence (P21917 whole entry): T5 sequence (whole entry)

[16] = Clearance in CD1 mouse at 2 mg/kg, iv; type: ADME, organism-based; parameters: dose 2 mg/kg, route intravenous; conditions: in vivo
[17] = target: T5, D(4) dopamine receptor (Homo sapiens); assay: Inhibition of dopamine D4 receptor (unknown origin) at 100 nM relative to control
[18] = target: T6, D(3) dopamine receptor; assay: Inhibition of human dopamine D3 receptor at 10 nM relative to control
[19] = target: T4, D(2) dopamine receptor; conditions: HEK293, 10 nM
[20] = target: T2, 5-hydroxytryptamine receptor 1A (Homo sapiens); assay: Antagonist activity at human 5-HT1A receptor transfected in CHO cells assessed as reversal of 8-OH-DPAT-induced cAMP reduction; type: functional, cell-based
[21] = target: T3, 5-hydroxytryptamine receptor 2B; assay: Inhibition of human 5-HT2B receptor
[22] = tested on: Mus musculus; assay: Toxicity in CD1 mouse assessed as effect on central reactivity up to 80 mg/kg, po measured for 24 hrs by Irwin test; type: organism-based; parameters: dose 80 mg/kg, route oral; conditions: in vivo
[23] = target: T4, D(2) dopamine receptor; assay: Inhibition of human recombinant dopamine D2S receptor expressed in HEK293 cells; type: cell-based
[24] = Apparent volume of distribution in CD1 mouse at 2 mg/kg, iv; type: ADME, organism-based; parameters: dose 2 mg/kg, route intravenous; conditions: in vivo, read-out: Vz
[25] = target: T8, 5-hydroxytryptamine receptor 1A (Rattus norvegicus, UniProt P19327); assay: Displacement of [3H]8-OH-DPAT from 5-HT1A receptor in Wistar rat cerebral hippocampus membrane after 10 mins; type: tissue-based; conditions: read-out: Ki(app)
T8 sequence (P19327 whole entry): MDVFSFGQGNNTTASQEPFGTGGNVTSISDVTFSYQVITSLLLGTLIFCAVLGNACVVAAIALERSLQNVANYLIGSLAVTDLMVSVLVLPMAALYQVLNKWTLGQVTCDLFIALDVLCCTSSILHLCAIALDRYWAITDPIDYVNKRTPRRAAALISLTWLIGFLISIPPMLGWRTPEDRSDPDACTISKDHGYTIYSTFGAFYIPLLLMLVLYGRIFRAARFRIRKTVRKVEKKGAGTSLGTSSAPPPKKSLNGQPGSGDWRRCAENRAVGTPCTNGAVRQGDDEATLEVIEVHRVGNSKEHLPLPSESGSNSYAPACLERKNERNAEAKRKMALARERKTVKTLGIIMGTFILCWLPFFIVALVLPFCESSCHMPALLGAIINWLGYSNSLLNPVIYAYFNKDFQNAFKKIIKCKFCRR

[26] = target: T6, D(3) dopamine receptor; assay: Inhibition of human dopamine D3 receptor at 100 nM relative to control
[27] = tested on: Mus musculus; assay: Toxicity in CD1 mouse assessed as effect on neurovegetative reflexes up to 80 mg/kg, po measured for 24 hrs by Irwin test; type: organism-based; parameters: dose 80 mg/kg, route oral; conditions: in vivo
[28] = Tmax in CD1 mouse at 10 mg/kg, po; type: ADME, organism-based; parameters: dose 10 mg/kg, route oral; conditions: in vivo
[29] = target: T3, 5-hydroxytryptamine receptor 2B; assay: Inhibition of human 5-HT2B receptor at 100 nM relative to control
[30] = AUC (0 to t) in CD1 mouse at 10 mg/kg, po; type: ADME, organism-based; parameters: dose 10 mg/kg, route oral; conditions: plasma
[31] = AUC (0 to t) in CD1 mouse at 2 mg/kg, iv; type: ADME, organism-based; parameters: dose 2 mg/kg, route intravenous; conditions: plasma
[32] = AUCinfinity in CD1 mouse at 10 mg/kg, po; type: ADME, organism-based; parameters: time infinity, dose 10 mg/kg, route oral; conditions: plasma
[33] = tested on: Mus musculus; assay: Toxicity in CD1 mouse assessed as effect on autonomic system up to 80 mg/kg, po measured for 24 hrs by Irwin test; type: organism-based; parameters: dose 80 mg/kg, route oral; conditions: in vivo
[34] = Cmax in CD1 mouse at 10 mg/kg, po; type: ADME, organism-based; parameters: dose 10 mg/kg, route oral; conditions: in vivo
[35] = target: T3, 5-hydroxytryptamine receptor 2B; assay: Binding affinity to human 5-HT2B receptor by radioligand displacement assay

T1 sequence (P34969 whole entry): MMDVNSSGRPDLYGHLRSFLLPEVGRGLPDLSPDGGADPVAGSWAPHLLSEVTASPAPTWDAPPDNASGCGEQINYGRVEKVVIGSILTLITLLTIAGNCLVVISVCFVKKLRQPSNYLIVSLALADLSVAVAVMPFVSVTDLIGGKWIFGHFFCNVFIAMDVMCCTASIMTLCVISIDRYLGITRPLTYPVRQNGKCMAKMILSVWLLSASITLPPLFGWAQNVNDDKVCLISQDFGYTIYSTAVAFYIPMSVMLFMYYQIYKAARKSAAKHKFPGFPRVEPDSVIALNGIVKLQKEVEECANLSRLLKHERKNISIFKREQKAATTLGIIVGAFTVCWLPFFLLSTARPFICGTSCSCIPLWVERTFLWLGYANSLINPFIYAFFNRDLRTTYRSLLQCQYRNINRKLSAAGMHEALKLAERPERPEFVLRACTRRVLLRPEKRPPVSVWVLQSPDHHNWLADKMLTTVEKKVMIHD

SMILES	IC50 [1]	Activity [2]	bioavailability [3]	inhibition [4]	inhibition [5]	inhibition [6]	inhibition [7]	Activity [8]	half-life [9]	inhibition [10]	half-life [11]	AUC(0-inf) [12]	inhibition [13]	IC50 [14]	IC50 [15]	clearance [16]	inhibition [17]	inhibition [18]	Activity [20]	IC50 [21]	also measured
COc1ccccc1N1CCN(CCCCCN2Cc3ccc4ccccc4c3C2=O)CC1	62 nM	Non-toxic	20%	63%	28%	65%	18%	Non-toxic	4.7 h	90%	1.3 h	210 ng·h/mL	13%	24 nM	65 nM	159 mL/min/kg	60%	39%	inactive	43 nM	inhibition [19]: 74%; Activity [22]: Non-toxic; IC50 [23]: 3.5 nM; Vd [24]: 17.6 L/kg; Ki [25]: 1.6 nM; inhibition [26]: 86%; Activity [27]: Non-toxic; Tmax [28]: 0.3 h; inhibition [29]: 70%; AUC(0-t) [30]: 212 ng·h/mL; AUC(0-t) [31]: 207 ng·h/mL; AUC(0-inf) [32]: 325 ng·h/mL; Activity [33]: Non-toxic; Cmax [34]: 56 ng/mL
COc1cc(CC(C)N)c(OC)cc1I (racemic)	–	–	–	–	–	–	–	–	–	–	–	–	–	–	–	–	–	–	–	–	IC50 [35]: 4 nM
COc1ccccc1N1CCN(CCCCCN2Cc3c(Cl)nc4ccccc4c3C2=O)CC1	> 100 nM	Non-toxic	45%	60%	18%	42%	24%	Non-toxic	4.5 h	26%	1.5 h	76 ng·h/mL	10%	31 nM	> 100 nM	440 mL/min/kg	28%	38%	inactive	63 nM	Activity [22]: Non-toxic; IC50 [23]: > 100 nM; Vd [24]: 58.7 L/kg; Ki [25]: 1.7 nM; inhibition [26]: 74%; Activity [27]: Non-toxic; Tmax [28]: 1 h; inhibition [29]: 65%; AUC(0-t) [30]: 157 ng·h/mL; AUC(0-t) [31]: 70 ng·h/mL; AUC(0-inf) [32]: 239 ng·h/mL; Activity [33]: Non-toxic; Cmax [34]: 35 ng/mL
